Measurements: patent publication US4889848A, “Tricyclic pyridine derivatives” (Hoffmann-La Roche Inc., priority 1988, dated 1989)
Like-named read-outs stand apart in the source and are kept apart here.

Columns and labels:
[1] = acute toxicity, single oral administration to mice; details: mouse, in vivo, p.o.
Procedure: (§1) In this animal test, the compound under investigation is adminstered orally or intravenously to female rats and 30 minutes later there are administered intraperitioneally 120 mg/kg of pentetrazole, which causes emprosthotonus and tonic stretchings of the fore and/or hind limbs in unprotected animals 1-4 minutes after the injection. Ten (10) experimental animals are used per dosage of test substance. After counting the protected experimental animals, the ED50 is determined according to the […]. The ED50 is that dosage which protects 50% of the experimental animals from the spasmodic seizures caused by pentetrazole. The results which have been obtained with representative members of the class of compound defined by formula I in the experiment described previously are compiled in the following Table. Moreover, the Table contains data concerning the acute toxicity (LD50) of some of the compounds of formula I in mg/kg in the case of single oral administration to mice.

[2] = test system: spasmodic seizures caused by pentetrazole; assay: antipentetrazole test (protection from pentetrazole-induced seizures); type: in vivo, female rats; details: Rattus norvegicus, po, read-out: ED50 (dosage which protects 50% of the experimental animals from the spasmodic seizures caused by pentetrazole)
Procedure: As mentioned earlier, the compounds of formula I have valuable pharmacological properties.
as §1

[3] = female rats, compound given 30 minutes before 120 mg/kg pentetrazole intraperitoneally, 10 animals per dosage

Row | Structure (SMILES) | LD50 [1] [mg/kg] | ED50 [2] [mg/kg] | ED50 [2, 3] [mg/kg]
1 | O=C(c1cc(-c2ccccc2)c(=O)n2ccc3ccc(Cl)cc3c12)N1CCC[C@@H]1CO [W, (R)-1-[(10-Chloro-4-oxo-3-phenyl-4H-benzo[a]quinolizin-1-yl)carbonyl]-2-pyrrolidinemethanol] | > 3000 | 0.51 | 
2 | COC[C@@H]1CCCN1C(=O)c1cc(-c2ccccc2)c(=O)n2c1-c1cc(Cl)ccc1CC2 [T, (S)-1-[(10-Chloro-6,7-dihydro-4-oxo-3-phenyl-4H-benzo[a]quinolizin-1-yl)carbonyl]-2-(methoxymethyl)pyrrolidine] | > 5000 | 3.8 | 
3 | CCOC1CCN(C(=O)c2cc(-c3ccccc3)c(=O)n3c2-c2cc(Cl)ccc2CC3)C1 (centres unmarked) [Q, 1-[(10-Chloro-6,7-dihydro-4-oxo-3-phenyl-4H-benzo[a]quinolizin-1-yl)carbonyl]-3-ethoxypyrrolidine] | > 5000 | 3.1 | 
4 | COCCNC(=O)c1cc(-c2ccccc2)c(=O)n2c1-c1cc(Cl)ccc1CC2 [Compound A, 10-Chloro-6,7-dihydro-N-(2-methoxyethyl)-4-oxo-3-phenyl-4H-benzo[a]quinolizine-1-carboxamide] | > 5000 | 2.6 | 
5 | CC1CN(C(=O)c2cc(-c3ccccc3)c(=O)n3c2-c2cc(Cl)ccc2CC3)CC(C)O1 (centres unmarked) [D, 4-[(6,7-Dihydro-4-oxo-3-phenyl-10-chloro-4H-benzo[a]quinolizin-1-yl)carbonyl]-2,6-dimethylmorpholine] | > 5000 | 1.2 | 
6 | COC[C@@H]1CCCN1C(=O)c1cc(-c2ccccc2)c(=O)n2ccc3ccsc3c12 [F, (S)-2-methoxymethyl-1-[(7-oxo-8-phenyl-7H-thieno[2,3-a]quinolizin-10-yl)carbonyl]pyrrolidine] | 5000 | 2.8 | 
7 | COC1CCN(C(=O)c2cc(-c3ccccc3)c(=O)n3ccc4ccc(Cl)cc4c23)CC1 [L, 1-[(10-Chloro-3-phenyl-4-oxo-4H-benzo[a]quinolizin-1-yl)carbonyl]-4-methoxypiperidine] | > 5000 | 0.22 | 
8 | C[C@@H]1CN(C(=O)c2cc(-c3ccccc3)c(=O)n3c2-c2sccc2CC3)C[C@H](C)O1 [I, cis-4-[(4,5-dihydro-7-oxo-8-phenyl-7H-thieno[2,3-a]-quinolizin-10-yl)carbonyl]-2,6-dimethylmorpholine] | > 5000 |  | 5.9
9 | COC1CCN(C(=O)c2cc(-c3ccccc3)c(=O)n3c2-c2cc(Cl)ccc2CC3)CC1 [K] | > 5000 | 0.56 | 
10 | COC1CCN(C(=O)c2cc(-c3ccccc3)c(=O)n3c2-c2cc(Cl)ccc2CC3)C1 (centres unmarked) [P, 1-[(10-Chloro-6,7-dihydro-4-oxo-3-phenyl-4H-benzo[a]quinolizin-1-yl)carbonyl]-3-methoxypyrrolidine] | > 5000 | 0.31 | 
11 | O=C(OCc1cc(-c2ccccc2)c(=O)n2c1-c1sccc1CC2)N1CCOCC1 [C, (4,5-Dihydro-7-oxo-8-phenyl-7H-thieno[2,3-a]quinolizin-10-yl)methyl 4-morpholinecarboxylate] |  | 15.9 | 
12 | COC[C@@H]1CCCN1C(=O)c1cc(-c2ccccc2)c(=O)n2ccc3ccc(Cl)cc3c12 [X, (S)-1-[(10-Chloro-4-oxo-3-phenyl-4H-benzo[a]quinolizin-1-yl)carbonyl]-2-(methoxymethyl)pyrrolidine] | 5000 | 1.1 | 
13 | COC1CCN(C(=O)c2cc(-c3ccccc3)c(=O)n3ccc4ccc(Cl)cc4c23)C1 (centres unmarked) [G, 1-[(10-chloro-4-oxo-3-phenyl-4H-benzo[a]quinolizin-1-yl)carbonyl]-3-methoxypyrrolidine] | 2500 | 0.12 | 
14 | CCN(CCOC)C(=O)c1cc(-c2ccccc2)c(=O)n2ccc3ccsc3c12 [M, N-ethyl-N-(2-methoxyethyl)-7-oxo-8-phenyl-7H-thieno[2,3-a]quinolizine-10-carboxamide] | 5000 | 5 | 
15 | COC[C@H]1CCCN1C(=O)c1cc(-c2ccccc2)c(=O)n2ccc3ccc(Cl)cc3c12 [Y, (R)-1-[(10-Chloro-4-oxo-3-phenyl-4H-benzo[a]quinolizin-1-yl)carbonyl]-2-(methoxymethyl)pyrrolidine] | 5000 | 0.41 | 
16 | O=C(c1cc(-c2ccccc2)c(=O)n2ccc3ccc(Cl)cc3c12)N1CCC[C@H]1CO [H, (S)-1-[(10-chloro-4-oxo-3-phenyl-4H-benzo[a]quinolizin-1-yl)carbonyl]-2-pyrrolidinemethanol] | > 3000 | 1.3 | 
17 | O=C(c1cc(-c2ccccc2)c(=O)n2ccc3ccsc3c12)N1CCC[C@H]1CO [E, (S)-1-[(7-oxo-8-phenyl-7H-thieno[2,3-a]quinolizin-10-yl)carbonyl]-2-pyrrolidinemethanol] | 625 | 3.5 | 
18 | COCCN(C)C(=O)c1cc(-c2ccccc2)c(=O)n2ccc3ccsc3c12 [N, N-(2-Methoxyethyl)-N-methyl-7-oxo-8-phenyl-7H-thieno[2,3-a]quinolizine-10-carboxamide] | 625 | 0.97 | 
19 | CO[C@H]1CCN(C(=O)c2cc(-c3ccccc3)c(=O)n3ccc4ccsc4c23)C1 [S, (S)-3-methoxy-1-[(7-oxo-8-phenyl-7H-thieno[2,3-a]-quinolizin-10-yl)carbonyl]pyrrolidine] | 5000 | 0.87 | 
20 | CO[C@@H]1CCN(C(=O)c2cc(-c3ccccc3)c(=O)n3ccc4ccsc4c23)C1 [R, (R)-3-methoxy-1-[(7-oxo-8-phenyl-7H-thieno[2,3-a]-quinolizin-10-yl)carbonyl]pyrrolidine] | 1250 | 0.17 | 
21 | COC[C@H]1CCCN1C(=O)c1cc(-c2ccccc2)c(=O)n2ccc3ccsc3c12 [O, (R)-2-(methoxymethyl)-1-[(7-oxo-8-phenyl-7H-thieno[2,3-a]quinolizin-10-yl)carbonyl]pyrrolidine] | 5000 | 0.49 | 
22 | COC1CN(C(=O)c2cc(-c3ccccc3)c(=O)n3ccc4ccsc4c23)C1 [V, 3-Methoxy-1-[(7-oxo-8-phenyl-7H-thieno[2,3-a]quinolizin-10-yl)carbonyl]azetidine] | > 5000 | 0.13 | 
23 | COC1CCN(C(=O)c2cc(-c3ccccc3)c(=O)n3c2-c2sccc2CC3)C1 (centres unmarked) [U, 1-[(4,5-Dihydro-7-oxo-8-phenyl-7H-thieno[2,3-a]quinolizin-10-yl)carbonyl]-3-methoxypyrrolidine] | > 5000 | 2.7 | 
24 | O=C(c1cc(-c2ccccc2)c(=O)n2c1-c1cc(Cl)ccc1CC2)N1CCC(O)CC1 [B, 1-[(10-Chloro-6,7-dihydro-4-oxo-3-phenyl-4H-benzo[a]quinolizin-1-yl)carbonyl]-4-piperidinol] | > 5000 |  | 5.4
